In US7273848B2, “Apolipoprotein A-I agonists and their use to treat dyslipidemic disorders” (priority 1997, dated 2007):
Non-standard residues stand in square brackets, D forms with d. Residues, ends and D or L forms follow the SMILES beside them. No end group written: not given here. Orn = NCCC[C@H](N)C(=O)O; Aib = CC(C)(N)C(=O)O

Experiments:
[1] = target: T1, LCAT (purified from human plasma) (Homo sapiens, UniProt P04180); assay: LCAT activation assay; assay type: biochemical; details: LCAT activation as compared with native human ApoA-I (= 100%), equivalent masses
T1 construct: from tissue; host or cells: human plasma
T1 sequence (P04180 25-440): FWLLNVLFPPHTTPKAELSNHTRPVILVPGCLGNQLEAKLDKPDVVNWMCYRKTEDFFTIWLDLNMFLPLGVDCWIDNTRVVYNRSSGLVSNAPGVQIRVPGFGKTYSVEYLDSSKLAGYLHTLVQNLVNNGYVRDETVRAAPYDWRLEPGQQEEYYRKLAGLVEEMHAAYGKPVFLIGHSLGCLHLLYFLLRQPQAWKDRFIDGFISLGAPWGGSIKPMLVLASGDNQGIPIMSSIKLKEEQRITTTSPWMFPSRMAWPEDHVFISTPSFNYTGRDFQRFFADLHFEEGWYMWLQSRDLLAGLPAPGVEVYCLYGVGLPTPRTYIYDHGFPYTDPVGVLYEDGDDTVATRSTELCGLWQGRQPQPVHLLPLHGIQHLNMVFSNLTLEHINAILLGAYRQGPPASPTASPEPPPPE
Method: The peptides synthesized as described in Section 6, supra, were analyzed in vitro for their ability to activate LCAT. In the LCAT assay, substrate vesicles (small unilamellar vesicles or “SUVs”) composed of egg phophatidylcholine (EPC) or 1-Palmitoyl-2-oleyl-phosphatidyl-choline (POPC) and radiolabelled cholesterol are preincubated with equivalent masses either of peptide or ApoA-I (isolated from human plasma). The reaction is initiated by addition of LCAT (purified from human plasma). Native ApoA-I, which was used as positive control, represents 100% activation activity. “Specific activity” (i.e., units of activity (LCAT activation)/unit of mass) of the peptides can be calculated as the concentration of peptide that achieves maximum LCAT activation. For example, a series of concentrations of the peptide (e.g., a limiting dilution) can be assayed to determine the “specific activity” for the peptide—the concentration which achieves maximal LCAT activation (i.e., percentage conversion of cholesterol to cholesterol ester) at a specific timepoint in the assay (e.g., 1 hr.). When plotting percentage conversion of cholesterol at, e.g., 1 hr., against the concentration of peptide used, the “specific activity” can be identified as the concentration of peptide that achieves a plateau on the plotted curve.
The vesicles used in the LCAT assay are SUVs composed of egg phosphatidylcholine (EPC) or 1-palmitoyl-2-oleyl-phosphatidylcholine (POPC) and cholesterol with a molar ratio of 20:1. To prepare a vesicle stock solution sufficient for 40 assays, 7.7 mg EPC (or 7.6 mg POPC; 10 μmol), 78 μg (0.2 μmol) 4-^14C-cholesterol, 116 μg cholesterol (0.3 μmol) are dissolved in 5 ml xylene and lyophilized. Thereafter 4 ml of assay buffer is added to the dry powder and sonicated under nitrogen atmosphere at 4° C. Sonication conditions: Branson 250 sonicator, 10 mm tip, 6×5 minutes; Assay buffer: 10 mM Tris, 0.14 M NaCl, 1 mM EDTA, pH 7.4). The sonicated mixture is centrifuged 6 times for 5 minutes each time at 14,000 rpm (16,000×g) to remove titanium particles. The resulting clear solution is used for the enzyme assay.
For the LCAT purification, dextran sulfate/Mg^2+ treatment of human plasma is used to obtain lipoprotein deficient serum (LPDS), which is sequentially chromatographed on Phenylsepharose, Affigelblue, ConcanavalinA sepharose and anti-ApoA-I affinity chromatography, as summarized for a representative purification in TABLE IX, below: […]

[2] = Circular dichroism helicity determination; assay type: physicochemical; details: percent helicity
Method: Far UV circular dichroism spectra were recorded between 190 and 260 nm (in 0.5 nm or 0.2 nm increments) with a AVIV62DS spectrometer (AVIV Associates, Lakewood, N.J., USA) equipped with a thermoelectric cell holder and sample changer. The instrument was calibrated with (+)-10-[…]. Between one and three scans were collected for each sample, using 10 cm, 5 cm, 1 cm and 0.1 cm path length quartz Suprasil cells, respectively, for peptide concentrations of 10^−7 M to 10^−4 M. The bandwidth was fixed at 1.5 nm and the scan speed to 1s per wavelength step. The reported data are the mean of at least 2 or 3 independent measurements.
After background substraction, spectra were converted to molar ellipticity (θ) per residue in deg. […] dmol^−1. The peptide concentration was determined by amino acid analysis and also by absorption spectrometry on a Perkin Elmer Lambda 17 UV/Visible spectrophotometer when the peptide contained a chromophore (tryptophane, dansyl, naphtylalanine).
CD spectra were obtained with free, unbound peptide (5 μM in 5 mM phosphate buffer, pH 7.4); with peptide-SUV complexes (20:1 EPC:Chol., Ri=30 and Ri=50); with peptide-micelle complexes (1-myristoyl-2-hydroxy-sn-glycero-3-phosphatidyl choline, Ri=100); and with free, unbound peptide in the presence of 2,2,2-trifluoroethanol (TFE) (5 μM peptide, 90% vol TFE).
The SUVs were obtained by dispersing the lipids (10 mM, 20:1 EPC:Chol., Avanti Polar Lipids, AL) in phosphate buffer (5 mM, pH 7.4) with bubbling N2 for 5 min., followed by sonication (1.5 hr.) in a bath sonicator. The homogeneity of the preparation was checked by FPLC.
The micelles were obtained by dispersing the lipid (6 mM 1-myristoyl-2-hydroxy-sn-glycero-3-phosphatidyl choline, Avanti Polar Lipids, AL) in phosphate buffer (5 mM, pH 7.4) with bubbling N2 for 5 min., followed by vortexing.
To obtain the peptide-SUV complexes, SUVs were added to the peptide (5 μM in 5 mM phosphate buffer, pH 7.4) at a phospholipid-peptide molar ratio (Ri) of 30 or 50.
To obtain the peptide-micelle complexes, micelles were added to the peptide (5 μM in 5 mM phosphate buffer, pH 7.4) at a Ri of 100.
All spectra were recorded at 37° C.
The degree of helicity of the peptides in the various conditions was determined from the mean residue ellipticity at 222 nm (Chen et al., 1974, Biochemistry 13:3350-3359) or by comparing the CD spectra obtained to reference spectra available on databases (16 helical reference spectra from Provencher & Glockner, 1981, Biochemistry 20:33-37; denatured protein reference spectra from Venyaminov et al., 1993, Anal. Biochem. 214:17-24) using the CONTIN curve-fitting algorithm version 2DP, CD-1 pack (August 1982) (Provencher, 1982, Comput. Phys. Commun. 27:213-227, 229-242). Acceptable fit was determined using the statistical analysis methodology provided by the CONTIN algorithm. The error of all methods was ±5% helicity.

| Compound | ACTIVITY (%) LCAT [1] | further results |
| --- | --- | --- |
| CC(C)C[C@H](NC(=O)[C@H](CCCCN)NC(=O)[C@H](CCC(N)=O)NC(=O)[C@H](CCCCN)NC(=O)[C@H](CC(C)C)NC(=O)[C@H](C)NC(=O)[C@H](CCC(=O)O)NC(=O)[C@H](CC(C)C)NC(=O)C(C)(C)NC(=O)[C@H](CCC(=O)O)NC(=O)[C@H](CC(N)=O)NC(=O)[C@H](CC(C)C)NC(=O)[C@H](CCCCN)NC(=O)[C@H](CCC(=O)O)NC(=O)[C@H](CCCNC(=N)N)NC(=O)[C@H](Cc1ccccc1)NC(=O)[C@H](CCC(=O)O)NC(=O)[C@H](CC(=O)O)NC(=O)[C@H](CC(C)C)NC(=O)[C@@H](NC(=O)[C@@H]1CCCN1)C(C)C)C(=O)O [compound 58, PVLDEFREKLNEXLEALKQKL~] (H-PVLDEFREKLNE[Aib]LEALKQKL-OH) | 18% |  |
| VVLDLFRELLNELLEALKQKLK [compound 53] | 19% |  |
| PVLDLFRELLNELLELLKQKLK [compound 127] | 47% |  |
| Ac-GVLDLFRELLEELKQKLK-NH2 [compound 198] | 80% |  |
| CC(C)C[C@H](NC(=O)[C@H](C)NC(=O)[C@H](CCC(=O)O)NC(=O)[C@H](CC(C)C)NC(=O)[C@H](CC(C)C)NC(=O)[C@H](CCC(=O)O)NC(=O)[C@H](CC(N)=O)NC(=O)[C@H](CC(C)C)NC(=O)[C@H](CC(C)C)NC(=O)[C@H](CCC(=O)O)NC(=O)[C@H](CCCNC(=N)N)NC(=O)[C@H](Cc1ccccc1)NC(=O)[C@H](CC(C)C)NC(=O)[C@H](CC(=O)O)NC(=O)[C@H](CC(C)C)NC(=O)[C@@H](NC(=O)[C@H]1CCCN1)C(C)C)C(=O)N[C@@H](CCCCN)C(=O)N[C@@H](CCC(N)=O)C(=O)N[C@@H](CCCCN)C(=O)N[C@@H](CC(C)C)C(=O)N[C@@H](CCCCN)C(=O)N[C@@H](CCCCN)C(=O)O [compound 5] | 90% |  |
| PVFELFENLLERLLDALQKKLK [peptide 152] | 50% |  |
| CC(C)C[C@H](NC(=O)[C@H](C)NC(=O)[C@H](CC(=O)O)NC(=O)[C@H](CC(C)C)NC(=O)[C@H](CC(C)C)NC(=O)[C@H](CCCN)NC(=O)[C@H](CCC(=O)O)NC(=O)[C@H](CC(C)C)NC(=O)[C@H](CC(C)C)NC(=O)[C@H](CC(N)=O)NC(=O)[C@H](CCC(=O)O)NC(=O)[C@H](Cc1ccccc1)NC(=O)[C@H](CC(C)C)NC(=O)[C@H](CCC(=O)O)NC(=O)[C@H](CC(C)C)NC(=O)[C@@H](NC(=O)[C@@H]1CCCN1)C(C)C)C(=O)N[C@@H](CCC(N)=O)C(=O)N[C@@H](CCCN)C(=O)N[C@@H](CCCN)C(=O)N[C@@H](CC(C)C)C(=O)N[C@@H](CCCN)C(=O)O [compound 170, PVLELFENLLEOLLDALQOOLO] (H-PVLELFENLLE[Orn]LLDALQ[Orn][Orn]L[Orn]-OH) | 17% |  |
| CC(C)C[C@H](NC(=O)[C@H](C)NC(=O)[C@H](CCC(=O)O)NC(=O)[C@H](CC(C)C)NC(=O)C(C)(C)NC(=O)[C@H](CCC(=O)O)NC(=O)[C@H](CC(N)=O)NC(=O)[C@H](CC(C)C)NC(=O)[C@H](CCCCN)NC(=O)[C@H](CCC(=O)O)NC(=O)[C@H](CCCNC(=N)N)NC(=O)[C@H](Cc1ccccc1)NC(=O)[C@H](CCC(=O)O)NC(=O)[C@@H](N)CC(=O)O)C(=O)N[C@@H](CCCCN)C(=O)N[C@@H](CCC(N)=O)C(=O)N[C@@H](CCCCN)C(=O)N[C@@H](CC(C)C)C(=O)N[C@@H](CCCCN)C(=O)O [compound 90, ~~~DEFREKLNEXLEALKQKLK] (H-DEFREKLNE[Aib]LEALKQKLK-OH) | 6% |  |
| PVLDLFRNLLEELLKALEQKLK [compound 57] | 18% |  |
| CC(C)C[C@H](NC(=O)[C@H](C)NC(=O)[C@H](CCC(=O)O)NC(=O)[C@H](CC(C)C)NC(=O)C(C)(C)NC(=O)[C@H](CCC(=O)O)NC(=O)[C@H](CC(N)=O)NC(=O)[C@H](CC(C)C)NC(=O)[C@H](CCCCN)NC(=O)[C@H](CCC(=O)O)NC(=O)[C@H](CCCNC(=N)N)NC(=O)[C@H](Cc1ccccc1)NC(=O)[C@H](CCCCN)NC(=O)[C@H](CC(=O)O)NC(=O)[C@H](CC(C)C)NC(=O)[C@@H](NC(=O)[C@@H]1CCCN1)C(C)C)C(=O)N[C@@H](CCCCN)C(=O)N[C@@H](CCC(N)=O)C(=O)N[C@@H](CCCCN)C(=O)N[C@@H](CC(C)C)C(=O)N[C@@H](CCCCN)C(=O)O [compound 74, PVLDKFREKLNEXLEALKQKLK] (H-PVLDKFREKLNE[Aib]LEALKQKLK-OH) | 10% |  |
| PVLELFERLLDELLNALQKKLK [compound 86] | 7% |  |
| PVLDEFREKLNEELEALWQKLK [compound 121] | 0% |  |
| PLLELFENLLEKLLDALQKKLK [compound 183] | 6% |  |
| Ac-PVLDEFREKLNEELEALKQKLK-NH2 [peptide 75, reference compound] |  | He (%) TFE ([2]; 5 μM peptide, 90% vol TFE, 37° C.): 55%; He (%) free ([2]; free, unbound peptide 5 μM in 5 mM phosphate buffer, pH 7.4, 37° C.): 18%; He (%) SUVs ([2]; peptide-SUV complexes (20:1 EPC:Chol., Ri=30 and Ri=50), 37° C.): 23%; He (%) mics ([2]; peptide-micelle complexes, Ri=100, 37° C.): 28% |

More lines, main results first:

| ACTIVITY (%) LCAT [1] | Compound | further results |
| --- | --- | --- |
| 8% | DWFKAFYDKVFEKFKEFF [peptide 241, reference compound] |  |
| 58% | GVLDLFRELLNELLEALKQKLK [peptide 18] |  |
| 24% | PVLDLFRELLNELWQKLK [compound 219] |  |
| 4% | PVLELFLNLLERLLDAWQKKLK [compound 184] |  |
| 16% | PVLELFENLLEKLLDLLQKKLK [compound 171] |  |
| 18% | PVLELFENGLERLLDALQKKLK [compound 167] |  |
